Biological target: Cell division control protein 42 homolog (Homo sapiens, UniProt P60953)
Experiment: inhibition of fluorescent GTP binding to Cdc42 wt – biochemical, bead-based multiplex flow cytometry, additional SAR set, SAR follow-up (AID 2022)

Sequence of Cell division control protein 42 homolog (P60953 whole entry): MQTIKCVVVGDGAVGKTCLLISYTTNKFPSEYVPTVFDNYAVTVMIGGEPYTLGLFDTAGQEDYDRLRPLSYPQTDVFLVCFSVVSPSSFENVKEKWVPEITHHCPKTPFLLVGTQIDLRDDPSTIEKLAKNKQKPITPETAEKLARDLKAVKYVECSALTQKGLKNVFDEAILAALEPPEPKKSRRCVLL

Work on O=C1Nc2c(Cl)cccc2C1=C1Nc2ccccc2C1=O yielded a Ki of 0.01 µM.

Work on O=C1N=c2c(F)cccc2=C1c1[nH]c2ccccc2c1NO [7-fluoro-3-[3-(hydroxyamino)-1H-indol-2-yl]-2-indolone] yielded a Ki of 5.93 µM.
